System: carrageenan-induced mouse paw edema
Assay: Carrageenan-induced paw edema
Type: in vivo, mouse (female C57BL/6J)
Conditions: carrageenan-induced mouse paw inflammation; IIn treated

Structure (SMILES): CN(Cc1ccccn1)Cc1cccc(CN(C)Cc2ccccn2)n1 [IIn, N,N′-(Pyridine-2,6-diylbis(methylene))bis(N-methyl-1-(pyridin-2-yl)methanamine)]
- Histological analysis of paw tissue (H&E): significantly attenuated the mouse paw inflammation and damage

Source: publication PMC4894032 (European journal of medicinal chemistry, 2016)
